The text below walks through data of the OligoGym collection.

This data set has as its target HSD17B13. As to conditions: ASO, HepaRG.

After the bases stand the sugars from the 5' end (letter, count) and the backbone: PS all phosphorothioate, else s phosphorothioate and o phosphodiester by linkage. Methylation of C is not given here. e = 2'-O-(2-methoxyethyl) (MOE); k = constrained ethyl (cEt); d = 2'-deoxy (DNA); m = 2'-O-methyl

Consider TCATAGTGGACTTCAT (sugars k3 d10 k3, PS), for which, under “1 µM”, the target mRNA inhibition was found to be 36%.

Consider CAGAATATATACTAGG (sugars k3 d10 k3, PS), for which the target mRNA inhibition (1 µM) was determined as 55%.

CTCATTATAAGCTAAC (sugars k3 d10 k3, PS) had a target mRNA inhibition (1 µM) of 13%.

As for GCAGTTATTAGAAGTC (sugars k3 d10 k3, PS), the target mRNA inhibition reads like this: (0.02 µM) 9%; (0.078 µM) 22%; (0.313 µM) 41%; (1 µM) 76%; (1.25 µM) 74%; (5 µM) 84%.

CTAATGTATGAGGTCT (sugars k3 d10 k3, PS) showed a target mRNA inhibition (1 µM) of 46%.

Take TGCAGAAATTCACCTT (sugars k3 d10 k3, PS): for the setting “1 µM”, the target mRNA inhibition was 54%.

As for TCCATAAAGCTGGATT (sugars k3 d10 k3, PS), the target mRNA inhibition (1 µM) stood at 13%.

Turning to “GGTGGTAACGGTGATC (sugars kkdddddddddkekek, PS)”, the target mRNA inhibition (1 µM) amounted to 39%.

Sequence “CTAGTGCCAAACCAAT (sugars k3 d9 k3 e1, PS)” showed a target mRNA inhibition (1 µM) of 61%.

Sequence “GCTTUTGTCCACCTTT (sugars k3 d1 m1 d8 k3, PS)” gave a target mRNA inhibition (0.02 µM) of 0%; a target mRNA inhibition (0.078 µM) of 0%; a target mRNA inhibition (0.313 µM) of 13%; a target mRNA inhibition (1 µM) of 75%; a target mRNA inhibition (1.25 µM) of 70%; a target mRNA inhibition (5 µM) of 89%.

Under “1 µM”, GACAATGACATAGACG (sugars k3 d10 k3, PS) had a target mRNA inhibition of 0%.

In turn, CAACACTAATCTCAGT (sugars k3 d10 k3, PS) displayed a target mRNA inhibition (1 µM) of 4%.

In the case of GGAGTCGGATTATTTT (sugars k3 d10 k3, PS), for the setting “1 µM”, the target mRNA inhibition worked out at 41%.

“TCTAAGTTAGCCCCCA (sugars k3 d9 k3 e1, PS)” displayed a target mRNA inhibition (1 µM) of 0%.

On to AATACAGGCCATAATC (sugars k3 d10 k3, PS), for which, for the setting “1 µM”, the target mRNA inhibition stood at 16%.

For CTACCTCTAAGTTAGC (sugars k3 d10 k3, PS), the target mRNA inhibition (1 µM) was 6%.

Under “1 µM”, CTTGATGATTCTGACT (sugars k3 d10 k3, PS) registered a target mRNA inhibition of 57%.

As to AACTGAGCTAGACAAT (sugars k3 d10 k3, PS), the target mRNA inhibition (1 µM) worked out at 44%.

Take “TACCUCTAAGTTAGCC (sugars k3 d1 m1 d8 k3, PS)”: the target mRNA inhibition (1 µM) came to 13%.

With ATTAATGCCACCCTAC (sugars k3 d10 k3, PS), the target mRNA inhibition (1 µM) was found to be 6%.

For “TGCTGCATTAATGCCA (sugars k3 d9 k3 e1, PS)”, the target mRNA inhibition (1 µM) stood at 6%.

Turning to GGACTTCAGAGTTATA (sugars k3 d10 k3, PS), the target mRNA inhibition (1 µM) was determined as 36%.

For the setting “1 µM”, TCTACATGGATCCAAC (sugars k3 d10 k3, PS) showed a target mRNA inhibition of 26%.

ATATAGAGGGTCCACT (sugars k3 d10 k3, PS) gave a target mRNA inhibition (1 µM) of 18%.

In turn, TCATTATAAGCTAACT (sugars k3 d10 k3, PS) had a target mRNA inhibition (1 µM) of 0%.

Consider TGCCTGCCTATTCCAT (sugars k3 d10 k3, PS), for which the target mRNA inhibition (1 µM) was 40%.

For the setting “1 µM”, “ATAGCAAGCCAACAGA (sugars k3 d1 m1 d8 k3, PS)” registered a target mRNA inhibition of 1%.

AGGTAAACTAAAGTAC (sugars k3 d10 k3, PS) had a target mRNA inhibition (1 µM) of 6%.

Where the note is “1 µM”, TAAGCTGAGAGTTCTA (sugars k3 d10 k3, PS) registered a target mRNA inhibition of 64%.

ACGACTCCAAGTAGGA (sugars k3 d10 k3, PS) registered a target mRNA inhibition (1 µM) of 24%.

Where the note is “1 µM”, TAAGTTATTATCCCCA (sugars k3 d10 k3, PS) came in with a target mRNA inhibition of 70%.

On to TATTATGAGGATCTGG (sugars k3 d10 k3, PS), for which the target mRNA inhibition (1 µM) turned out to be 44%.

In the case of CCTAGTTTTCGGCACT (sugars k3 d10 k3, PS), the target mRNA inhibition (1 µM) is 62%.

AAGATCGGCTGGATAT (sugars k3 d10 k3, PS): the target mRNA inhibition (1 µM) amounted to 1%.

For the sequence “CCTATATACATCCAAG (sugars k3 d9 k3 e1, PS)”, the target mRNA inhibition (1 µM) was 63%.

In the case of GCGGCAAATTTGCTGG (sugars k3 d10 k3, PS), the target mRNA inhibition (1 µM) turned out to be 0%.

For the sequence CCAATATATACTGACA (sugars k3 d10 k3, PS), where the note is “1 µM”, the target mRNA inhibition came out at 68%.

On to “TATTCTGTGGCATGGC (sugars k3 d9 k3 e1, PS)”, for which the target mRNA inhibition is, setting by setting: (0.02 µM) 10%; (0.078 µM) 0%; (0.313 µM) 21%; (1 µM) 74%; (1.25 µM) 55%; (5 µM) 68%.

In the case of TCTGTCTCCAATACAG (sugars k3 d10 k3, PS), the target mRNA inhibition (1 µM) was 13%.

“AGTCCATGCAAAAGCA (sugars kkdddddddddkekek, PS)” gave a target mRNA inhibition (1 µM) of 52%.

In turn, ATATTCCAGGATTTGC (sugars k3 d10 k3, PS) gave a target mRNA inhibition (1 µM) of 26%.

In the case of “TCTCTTGACAATGGTT (sugars k3 d9 k3 e1, PS)”, the target mRNA inhibition came to 0% (0.02 µM); 23% (0.078 µM); 47% (0.313 µM); 84% (1 µM); 66% (1.25 µM); 79% (5 µM).

Sequence “GTCTAAACATCTCTGG (sugars k3 d1 m1 d8 k3, PS)” had a target mRNA inhibition (1 µM) of 47%.

In the case of GCACAAGCACACTGTA (sugars k3 d10 k3, PS), the target mRNA inhibition (1 µM) was 7%.

In turn, CTACACTAATATTGAG (sugars k3 d10 k3, PS) had a target mRNA inhibition (1 µM) of 20%.

As for “GGCTACAGATTGGAAT (sugars kkdddddddddkekek, PS)”, the target mRNA inhibition stood at 16% (0.02 µM); 0% (0.078 µM); 27% (0.313 µM); 73% (1 µM); 62% (1.25 µM); 83% (5 µM).

Take “CTTTGCAGCATTGATT (sugars k3 d1 m1 d8 k3, PS)”: the target mRNA inhibition (1 µM) turned out to be 19%.

Turning to TATTTAGCATTGCCTG (sugars k3 d10 k3, PS), the target mRNA inhibition (1 µM) worked out at 12%.

Consider AAATTAGAGGCCCAGG (sugars k3 d10 k3, PS), for which the target mRNA inhibition (1 µM) came to 43%.

“ATATGTCCAGGTTGAG (sugars k3 d1 m1 d8 k3, PS)” returned a target mRNA inhibition (1 µM) of 48%.

Sequence TGAGAAGGCGGTATCA (sugars k3 d10 k3, PS) gave a target mRNA inhibition (1 µM) of 20%.

For the sequence GTATTGAGATGACAGT (sugars k3 d10 k3, PS), the target mRNA inhibition came to 0% (0.02 µM); 0% (0.078 µM); 3% (0.313 µM); 68% (1 µM); 47% (1.25 µM); 73% (5 µM).

With “GCATUAATGCCACCCT (sugars k3 d1 m1 d8 k3, PS)”, the target mRNA inhibition (1 µM) was 32%.

Sequence TCCCCTCAAATAGCCT (sugars k3 d10 k3, PS) displayed a target mRNA inhibition (1 µM) of 60%.

On to AAATGTCTTGGTAATC (sugars k3 d10 k3, PS), for which the target mRNA inhibition (1 µM) is 30%.

ACATAGGCTTAGTGTA (sugars k3 d10 k3, PS) gave a target mRNA inhibition (1 µM) of 0%.

Turning to TTTAACTTTCCTCCGT (sugars k3 d10 k3, PS), the target mRNA inhibition (1 µM) was 16%.

In the case of CCAGGTTGAGATAAAG (sugars k3 d10 k3, PS), the target mRNA inhibition (1 µM) amounted to 49%.

For the sequence “CTTGATGTAGTGGGAG (sugars k3 d1 m1 d8 k3, PS)”, where the note is “1 µM”, the target mRNA inhibition came to 67%.

In turn, “TGTCCAGGTTGAGATA (sugars kkdddddddddkekek, PS)” gave a target mRNA inhibition (1 µM) of 48%.

For GTTACCAGAGCATTCA (sugars k3 d10 k3, PS), the target mRNA inhibition (0.02 µM) was 19%; the target mRNA inhibition (0.078 µM) was found to be 36%; the target mRNA inhibition (0.313 µM) turned out to be 63%; the target mRNA inhibition (1 µM) came out at 73%; the target mRNA inhibition (1.25 µM) stood at 74%; the target mRNA inhibition (5 µM) was found to be 92%.

In turn, ATATACGATGGAACAA (sugars k3 d10 k3, PS) registered a target mRNA inhibition (1 µM) of 0%.

“TGATATTCTGTGGCAT (sugars k3 d9 k3 e1, PS)” had a target mRNA inhibition (0.02 µM) of 8%; a target mRNA inhibition (0.078 µM) of 23%; a target mRNA inhibition (0.313 µM) of 40%; a target mRNA inhibition (1 µM) of 74%; a target mRNA inhibition (1.25 µM) of 67%; a target mRNA inhibition (5 µM) of 90%.

For the sequence “TTCTTATGTAATAGCC (sugars k3 d9 k3 e1, PS)”, the target mRNA inhibition is, setting by setting: (0.02 µM) 17%; (0.078 µM) 25%; (0.313 µM) 57%; (1 µM) 73%; (1.25 µM) 76%; (5 µM) 85%.

Sequence GATTAATCATGGGACA (sugars k3 d10 k3, PS) returned a target mRNA inhibition (1 µM) of 9%.

In turn, “TATTATGTGATTGAGT (sugars k3 d9 k3 e1, PS)” returned a target mRNA inhibition (1 µM) of 51%.

Under “1 µM”, CTGCAACTTTTAGTCA (sugars k3 d10 k3, PS) came in with a target mRNA inhibition of 21%.

In turn, “CCGTTTTGGGCTAATG (sugars k3 d9 k3 e1, PS)” showed a target mRNA inhibition (1 µM) of 69%.

In turn, GTTGATATTTCCATCT (sugars k3 d10 k3, PS) showed a target mRNA inhibition (1 µM) of 55%.

Where the note is “1 µM”, “TATGTGATTGAGTTCT (sugars kkdddddddddkekek, PS)” returned a target mRNA inhibition of 23%.

The sequence “TGATACACCAATGCAG (sugars k3 d9 k3 e1, PS)” returned a target mRNA inhibition (1 µM) of 58%.

As to AATTTTCAGATCCCGT (sugars k3 d10 k3, PS), under “1 µM”, the target mRNA inhibition amounted to 74%.

GGGAGGTAGCTTTTGT (sugars k3 d10 k3, PS): the target mRNA inhibition (1 µM) was found to be 10%.

Take CGTTTACTCACTTCTG (sugars k3 d10 k3, PS): where the note is “1 µM”, the target mRNA inhibition is 21%.

GGAAATTCACAATCTA (sugars k3 d10 k3, PS): the target mRNA inhibition (1 µM) worked out at 22%.

Turning to ACCTAATAACTACATG (sugars k3 d10 k3, PS), the target mRNA inhibition (1 µM) came to 0%.

ATGTATGAGGTCTCCG (sugars k3 d10 k3, PS) registered a target mRNA inhibition (1 µM) of 63%.
